Consider 32 compounds from patent publication US7989462B2, “4-arylamin-or-4-heteroarylamino-quinazolines and analogs as activators of caspases and inducers of apoptosis and the use thereof” (Myrexis, Inc., priority 2003, dated 2011).

The subject of this experiment is T-47D. Kind of experiment: Caspase cascade activation in T-47D solid tumor cells (fluorogenic N-(Ac-DEVD)-N'-ethoxycarbonyl-R110 substrate). To be noted: T-47D (24 hr); for EC50: Homo sapiens, T47D, read-out: Caspase Potency EC50; for Caspase Activity Ratio: ratio of net RFU of test compound to that of control samples. In kind it is cell-based, Human. Here is the method: Human breast cancer cell lines T-47D and DLD-1 were grown according to media component mixtures designated by American Type Culture Collection+10% FCS (Invitrogen Corporation), in a 5% CO2-95% humidity incubator at 37° C. T-47D and DLD-1 cells were maintained at a cell density between 50 and 80% confluency at a cell density of 0.1 to 0.6×10^6 cells/mL. Cells were harvested at 600×g and resuspended at 0.65×10^6 cells/mL into appropriate media+10% FCS. An aliquot of 22.5 μL of cells was added to a well of a 384-well microtiter plate containing 2.5 μL of a 10% DMSO in RPMI-1640 media solution containing 0.16 to 100 μM of (2-chloro-quinazolin-4-yl)-(4-dimethylaminophenyl)-methylamine or other test compound (0.016 to 10 μM final). An aliquot of 22.5 μL of cells was added to a well of a 384-well microtiter plate containing 2.5 μL of a 10% DMSO in RPMI-1640 media solution without test compound as the control sample. […] After incubation, the samples were removed from the incubator and 25 μL of a solution containing 14 μM of N-(Ac-DEVD)-N′-ethoxycarbonyl-R110 fluorogenic substrate (Cytovia, Inc.; WO99/18856), 20% sucrose (Sigma), 20 mM DTT (Sigma), 200 mM NaCl (Sigma), 40 mM Na PIPES buffer pH 7.2 (Sigma), and 500 μg/mL lysolecithin (Calbiochem) was added. The samples were mixed by agitation and incubated at room temperature. Using a fluorescent plate reader (Model SPECTRAfluor Plus, Tecan), an initial reading (T=0) was made approximately 1-2 min after addition of the substrate solution, employing excitation at 485 nm and emission at 530 nm, to determine the background fluorescence of the control sample. After the 3 h incubation, the samples were read for fluorescence as above (T=3 h).
The Relative Fluorescence Unit values (RFU) were used to calculate the sample readings as follows: RFU(T=3h)−Control RFU(T=0)=Net RFU(T=3h)
The activity of caspase cascade activation was determined by the ratio of the net RFU value for (2-chloro-quinazolin-4-yl)-(4-dimethylaminophenyl)-methylamine or other test compounds to that of control samples. The EC50 (nM) was determined by a sigmoidal dose-response calculation (Prism 3.0, GraphPad Software Inc.).

As to `CC(=O)Nc1ccc(N(C)c2nc(C)nc3ccccc23)cc1` [Example 1, (4-Acetamido-phenyl)-(2-methyl-quinazolin-4-yl)-methylamine], the half-maximal effective concentration (EC50) came to 47 nM and the “Caspase Activity Ratio” value is given as 8.1.

With `COc1c(Br)cc(N(C)c2nc(C)nc3cc([N+](=O)[O-])ccc23)cc1Br` [Example 2, (3,5-Dibromo-4-methoxyphenyl)-(2-methyl-7-nitroquinazolin-4-yl)-methylamine], the concentration for a half-maximal effect (EC50) is over 10000 nM and the “Caspase Activity Ratio” value is listed as 1.1.

Consider `COc1ccc(N(C)c2nc(NCc3ccccc3)nc3ccccc23)cc1` [Example 3, (2-Benzylamino-quinazolin-4-yl)-(4-methoxyphenyl)-methylamine], for which the EC50 was 75 nM and the “Caspase Activity Ratio” value is on record as 8.2.

For the compound `COC(=O)Nc1ccc(N(C)c2nc(C)nc3ccccc23)cc1` [Example 4, (2-Methyl-quinazolin-4-yl)-(4-methoxycarbonylamino-phenyl)-methylamine], the EC50 amounted to 73 nM and the “Caspase Activity Ratio” value amounted to 8.5.

On to `Cc1nc(N(C)c2ccc(NC(N)=O)cc2)c2ccccc2n1` [Example 5, (2-Methyl-quinazolin-4-yl)-(4-ureido-phenyl)-methylamine], for which the EC50 stood at 32 nM and the “Caspase Activity Ratio” value was found to be 9.3.

For the compound `CC(=O)N(C)c1ccc(N(C)c2nc(C)nc3ccccc23)cc1` [Example 6, (2-Methyl-quinazolin-4-yl)-(N-methyl-4-acetamido-phenyl)-methylamine], the EC50 was found to be 210 nM and the “Caspase Activity Ratio” value came out at 9.2.

Consider `CNc1ccc(N(C)c2nc(C)nc3ccccc23)cc1` [Example 7, (2-Methyl-quinazolin-4-yl)-(4-methylamino-phenyl)-methylamine], for which the EC50 amounted to 18 nM and the “Caspase Activity Ratio” value turned out to be 3.4.

For `COC(=O)N(C)c1ccc(N(C)c2nc(C)nc3ccccc23)cc1` [Example 8, (2-Methyl-quinazolin-4-yl)-[4-(N-methyl-methoxycarbonylamino)-phenyl]-methylamine], the 50% effective concentration (EC50) worked out at 558 nM and the “Caspase Activity Ratio” value worked out at 8.0.

With `COc1ccc(CNc2nc(N(C)c3ccc(OC)cc3)c3ccccc3n2)cc1` [Example 9], the EC50 worked out at 258 nM and the “Caspase Activity Ratio” value is 5.6.

Turning to `Cc1nc(N(C)c2ccc(N(C)C)cc2)c2cc([N+](=O)[O-])ccc2n1` [Example 10, (2-Methyl-6-nitroquinazolin-4-yl)-(4-dimethylaminophenyl)-methylamine], the EC50 was found to be 979 nM and the “Caspase Activity Ratio” value was 2.6.

Regarding `COc1ccc(N(C)c2nc(Cl)nc3ccc([N+](=O)[O-])cc23)cc1` [Example 11, (2-Chloro-6-nitroquinazolin-4-yl)-(4-methoxyphenyl)-methylamine], the EC50 is 5080 nM and the “Caspase Activity Ratio” value is recorded as 4.0.

Turning to `Cc1nc(N(C)c2ccc(N(C)C)cc2)c2cc(N)ccc2n1` [Example 12, (6-Amino-2-methyl-quinazolin-4-yl)-(4-dimethylaminophenyl)-methylamine], the concentration for a half-maximal effect (EC50) was found to be 33 nM and the “Caspase Activity Ratio” value was determined as 3.8.

Regarding `CN(C)c1ccc(N(C)c2nc(Cl)nc3ccccc23)cc1` [Example 13, (2-Chloro-quinazolin-4-yl)-(4-dimethylaminophenyl)-methylamine], the EC50 was 4 nM and the “Caspase Activity Ratio” value amounted to 4.2.

`COc1ccc(N(C)c2nc(N(C)C)nc3ccc([N+](=O)[O-])cc23)cc1` [Example 14, (2-Dimethylamino-6-nitroquinazolin-4-yl)-(4-methoxyphenyl)-methylamine]: the EC50 turned out to be 2360 nM and the “Caspase Activity Ratio” value is 4.2.

Consider `CNc1nc(N(C)c2ccc(N(C)C)cc2)c2ccccc2n1` [Example 15, (2-Methylamino-quinazolin-4-yl)-(4-dimethylaminophenyl)-methylamine], for which the EC50 came to 39 nM and the “Caspase Activity Ratio” value was 3.9.

Turning to `CC(=O)N(C)c1nc(N(C)c2ccc(N(C)C)cc2)c2ccccc2n1` [Example 16, [2-(N-Methyl-acetamido)-quinazolin-4-yl]-(4-dimethylaminophenyl)-methylamine], the EC50 was 14 nM and the “Caspase Activity Ratio” value is 2.4.

With `CNc1nc(N(C)c2ccc(OC)cc2)c2cc([N+](=O)[O-])ccc2n1` [Example 17, (2-Methylamino-6-nitroquinazolin-4-yl)-(4-methoxyphenyl)-methylamine], the EC50 was 619 nM and the “Caspase Activity Ratio” value is recorded as 3.7.

With `COc1ccc(N(C)c2nc(N(C)C)nc3ccc(N)cc23)cc1` [Example 18, (6-Amino-2-dimethylamino-quinazolin-4-yl)-(4-methoxyphenyl)-methylamine], the concentration for a half-maximal effect (EC50) amounted to 221 nM and the “Caspase Activity Ratio” value came out at 4.7.

`CNc1nc(N(C)c2ccc(OC)cc2)c2cc(N)ccc2n1` [Example 19, (6-Amino-2-methylamino-quinazolin-4-yl)-(4-methoxyphenyl)-methylamine]: the EC50 is 214 nM and the “Caspase Activity Ratio” value amounted to 4.3.

On to `CSc1ccc(Nc2nc(C)nc3ccccc23)cc1` [Example 20, (4-Methylthio-phenyl)-(2-methyl-quinazolin-4-yl)-amine], for which the EC50 was over 10000 nM and the “Caspase Activity Ratio” value is on record as 1.1.

Consider `CSc1ccc(N(C)c2nc(C)nc3ccccc23)cc1` [Example 21, (4-Methylthio-phenyl)-(2-methyl-quinazolin-4-yl)-methylamine], for which the EC50 was found to be 4 nM and the “Caspase Activity Ratio” value amounted to 7.5.

Consider `Cc1nc(Nc2ccc(N(C)C)cc2)c2ccccc2n1` [Example 22, (4-Dimethylamino-phenyl)-(2-methyl-quinazolin-4-yl)-amine], for which the EC50 turned out to be 2860 nM and the “Caspase Activity Ratio” value amounted to 8.7.

On to `Cc1nc(N(C)c2ccc3c(c2)nnn3C)c2ccccc2n1` [Example 23, (1-Methyl-1H-benzotriazol-5-yl)-(2-methyl-quinazolin-4-yl)-methylamine], for which the EC50 was over 10000 nM and the “Caspase Activity Ratio” value is given as 1.1.

For the compound `COc1ccc(Nc2nc(C)nc3ccccc23)cc1OC` [Example 24, (3,4-Dimethoxy-phenyl)-(2-methyl-quinazolin-4-yl)-amine], the EC50 was over 10000 nM and the “Caspase Activity Ratio” value is recorded as 1.3.

Regarding `COc1ccc(N(C)c2nc(C)nc3ccccc23)cc1OC` [Example 25, (3,4-Dimethoxy-phenyl)-(2-methyl-quinazolin-4-yl)-methylamine], the 50% effective concentration (EC50) was found to be 9 nM and the “Caspase Activity Ratio” value is recorded as 10.2.

In the case of `Cc1nc(Nc2ccc(N(C)C)nc2)c2ccccc2n1` [Example 26, (2-Dimethylamino-pyridine-5-yl)-(2-methyl-quinazolin-4-yl)-amine], the EC50 was over 10000 nM and the “Caspase Activity Ratio” value is 1.3.

As for `Cc1nc(N(C)c2ccc(N(C)C)nc2)c2ccccc2n1` [Example 27, (2-Dimethylamino-pyridine-5-yl)-(2-methyl-quinazolin-4-yl)-methylamine], the concentration giving a half-maximal response (EC50) came to 14 nM and the “Caspase Activity Ratio” value worked out at 9.0.

Turning to `COc1ccc(N(C)c2nc(N(C)C(C)=O)nc3ccccc23)cc1` [Example 28, (4-Methoxy-phenyl)-(2-N-methylacetamido-quinazolin-4-yl)-methylamine], the EC50 was determined as 7 nM and the “Caspase Activity Ratio” value is recorded as 4.0.

For `COC(=O)N(C)c1nc(N(C)c2ccc(OC)cc2)c2ccccc2n1` [Example 29, (4-Methoxy-phenyl)-(2-N-methyl-methoxycarbonylamino-quinazolin-4-yl)-methylamine], the EC50 came to 34 nM and the “Caspase Activity Ratio” value is given as 9.6.

As for `COc1ccc(N(C)c2nc(C)nc3ccc(N(C)C)cc23)cc1` [Example 30, (6-Dimethylamino-2-methyl-quinazolin-4-yl)-(4-methoxy-phenyl)-methylamine], the half-maximal effective concentration (EC50) stood at 382 nM and the “Caspase Activity Ratio” value is listed as 6.4.

Regarding `COc1ccc(N(C)c2nc(C)nc3ccc(NC(C)=O)cc23)cc1` [Example 31, (6-Acetamido-2-methyl-quinazolin-4-yl)-(4-methoxy-phenyl)-methylamine], the EC50 worked out at 796 nM and the “Caspase Activity Ratio” value is reported as 3.2.

Regarding `COc1ccc(N(C)c2nc(NN)nc3ccccc23)cc1` [Example 32, (2-Hydrazinyl-quinazolin-4-yl)-(4-methoxy-phenyl)-methylamine], the EC50 was determined as 68 nM and the “Caspase Activity Ratio” value is listed as 7.4.
